Results as given in PMC6272137, “Synthesis and Evaluation of Paeonol Derivatives as Potential Multifunctional Agents for the Treatment of Alzheimer’s Disease” (Molecules, 2015).
Where two headings read alike, the source gives them in different places.

How the values were obtained:
[1] = DPPH free radical scavenging assay; conditions: read-out: DPPH Scavenging (IC50), concentration causing 50% loss of initial DPPH free radical, mean ± SD, n = 3, 60 min, methanol
Method: Based on their interaction with DPPH (2,2-diphenyl-1-picrylhydrazyl) free radical, antioxidant activities of the new paeonol derivatives were screened. […] Paeonol is used as the positive control.
The stable radical DPPH was used as a reagent in this spectrophotometric assay. […] After a 60 min incubation period at room temperature in the dark, the absorbance was read at 517 nm against the corresponding blank. Inhibition of free radical DPPH in percent (I%) was calculated using the following Equation (1): (1) I%=(Ablank−Asample/Ablank)×100 Where Ablank is the absorbance of DPPH solution (control solution) against the blank, and Asample is the absorbance of the tested compound against the blank. Concentrations caused 50% loss of the initial DPPH free radical scavenging.

AChE from electric eel = target: T1, AChE from electric eel (Electrophorus electricus, UniProt O42275); test: biochemical; conditions: n = 3, pH 8.0, 37 °C, read-out: AChE Inhibition (IC50)
T1 construct: purchased Sigma Aldrich
Method: Acetylcholinesterase (AChE, E.C.3.1.1.7, from the electric eel), 5,5'-dithiobis-(2-nitrobenzoic acid) (DTNB), acetylthiocholine iodide (ATCI) and donepezil hydrochloride were purchased from Sigma Aldrich. […] Paeonol and 5a–5d were dissolved in DMSO and then diluted by phosphate buffer (pH 8.0) to seven different concentrations in the range of 10^−3–10^−9 M. AChE solutions were prepared in double-distilled water to 2.0 units/mL in 2 mL aliquots. The assay medium contained phosphate buffer, pH 8.0 (1 mL), 50 µL of 0.01 M DTNB, 10 µL of enzyme and 50 µL of acetylthiocholine iodide. Test compounds were added to assay solution and preincubated at 37 °C with enzyme for 15 min, followed by the addition of substrate. Activity was determined by measuring the increase in absorbance at 412 nm at 1 min intervals at 37 ± 0.2 °C. For determining the blank value, 50 µL buffer replaced the AChE solution.

PC12 cells = test: Protection of PC12 cells against H2O2-induced cell death (MTT assay); conditions: then 150 μM H2O2 for 5 h; for cell morphology (phase-contrast microscopy): 40 µM compound, 3 h preincubation

T1 sequence (O42275 24-633): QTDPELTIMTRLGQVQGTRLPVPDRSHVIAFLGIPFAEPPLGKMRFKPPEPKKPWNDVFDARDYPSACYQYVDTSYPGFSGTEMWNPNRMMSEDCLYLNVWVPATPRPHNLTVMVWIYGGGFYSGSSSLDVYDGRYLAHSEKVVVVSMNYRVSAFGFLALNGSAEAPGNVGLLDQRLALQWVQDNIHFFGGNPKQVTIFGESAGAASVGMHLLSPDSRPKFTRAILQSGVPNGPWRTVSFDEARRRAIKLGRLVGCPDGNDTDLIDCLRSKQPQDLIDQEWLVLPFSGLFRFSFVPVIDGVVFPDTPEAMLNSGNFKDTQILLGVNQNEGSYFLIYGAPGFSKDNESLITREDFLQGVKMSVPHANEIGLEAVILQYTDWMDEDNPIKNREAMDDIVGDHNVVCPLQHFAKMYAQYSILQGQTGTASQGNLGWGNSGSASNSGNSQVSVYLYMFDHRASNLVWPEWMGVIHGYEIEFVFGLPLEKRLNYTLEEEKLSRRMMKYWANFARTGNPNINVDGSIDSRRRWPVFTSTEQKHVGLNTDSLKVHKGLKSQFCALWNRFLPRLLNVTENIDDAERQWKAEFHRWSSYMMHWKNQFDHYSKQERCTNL

Structure (SMILES) | IC50 [1] [µM] | IC50 (AChE from electric eel) [µM] | cell morphology (phase-contrast microscopy) (PC12 cells) | protective effect on PC12 cells (MTT) (PC12 cells; 5 μM compound, 3 h pretreatment) | protective effect (cell viability, MTT) (PC12 cells; 40 μM compound, 3 h pretreatment, control cells = 100%) [%] | IC50 ([1]; listed as paeonol) [µM]
COc1ccc(C(=O)CN2CCN(Cc3ccccc3)CC2)c(O)c1 [5a, 2-(4-Benzylpiperazin-1-yl)-1-(2-hydroxy-4-methoxyphenyl) ethanone] | 143 ± 8.83 | 1.59 ± 0.011 |  |  |  | 
COc1ccc(C(=O)CN2CCN(Cc3ccc(C)cc3)CC2)c(O)c1 [5b, 1-(2-Hydroxy-4-methoxyphenyl)-2-(4-(4-methylbenzyl)piperazin-1-yl) ethanone] | 158 ± 6.88 | 0.61 ± 0.009 | maintained normal cell morphology |  |  | 
COc1ccc(C(=O)CN2CCN(Cc3ccc([N+](=O)[O-])cc3)CC2)c(O)c1 [5c, 1-(2-Hydroxy-4-methoxyphenyl)-2-(4-(4-nitrobenzyl)piperazin-1-yl) ethanone] | 192 ± 8.06 | 7.04 ± 0.032 |  |  |  | 
COc1ccc(C(=O)CN2CCN(Cc3ccc(Cl)cc3)CC2)c(O)c1 [5d, 2-(4-(4-Chlorobenzyl)piperazin-1-yl)-1-(2-hydroxy-4-methoxypheny) ethanone] | 187 ± 13.7 | 2.63 ± 0.153 |  |  |  | 
COc1ccc(C(C)=O)c(O)c1 [Paeonol, 2-hydroxy-4-methoxy-acetophenone] | 310 ± 5.41 |  | maintained normal cell morphology | did not cause any apparent effects | 58.9 | 310
